In publication PMC3914206:

Columns and labels:
Test in all cases: KiNativ chemical proteomics profiling in HeLa and PC3 cell lysates
Type in all cases: binding
[1] = molecular target: T1, selected panels of kinases in HeLa and PC3 cell lysates (Homo sapiens, UniProt O94804); details: 10 uM
T1 construct: endogenous in cells; host or cells: HeLa and PC3 cell lysates

[2] = molecular target: T2, selected panels of kinases in HeLa and PC3 cell lysates (Homo sapiens, UniProt P29323); details: 10 uM; proteome PC3; peptide […]kIPIR; labeling site Activation Loop
T2 construct: endogenous in cells; host or cells: HeLa and PC3 cell lysates

[3] = molecular target: T3, selected panels of kinases in HeLa and PC3 cell lysates (Homo sapiens, UniProt Q9UL54); details: 10 uM; TAO2; peptide DVk[…]; proteome PC3; labeling site Lys2
T3 construct: endogenous in cells; host or cells: HeLa and PC3 cell lysates

[4] = molecular target: T4, selected panels of kinases in HeLa and PC3 cell lysates (Homo sapiens, UniProt O60307); details: 10 uM, peptide DLk[…], labeling site Lys2
T4 construct: endogenous in cells; host or cells: HeLa and PC3 cell lysates
T4 sequence (O60307 whole entry): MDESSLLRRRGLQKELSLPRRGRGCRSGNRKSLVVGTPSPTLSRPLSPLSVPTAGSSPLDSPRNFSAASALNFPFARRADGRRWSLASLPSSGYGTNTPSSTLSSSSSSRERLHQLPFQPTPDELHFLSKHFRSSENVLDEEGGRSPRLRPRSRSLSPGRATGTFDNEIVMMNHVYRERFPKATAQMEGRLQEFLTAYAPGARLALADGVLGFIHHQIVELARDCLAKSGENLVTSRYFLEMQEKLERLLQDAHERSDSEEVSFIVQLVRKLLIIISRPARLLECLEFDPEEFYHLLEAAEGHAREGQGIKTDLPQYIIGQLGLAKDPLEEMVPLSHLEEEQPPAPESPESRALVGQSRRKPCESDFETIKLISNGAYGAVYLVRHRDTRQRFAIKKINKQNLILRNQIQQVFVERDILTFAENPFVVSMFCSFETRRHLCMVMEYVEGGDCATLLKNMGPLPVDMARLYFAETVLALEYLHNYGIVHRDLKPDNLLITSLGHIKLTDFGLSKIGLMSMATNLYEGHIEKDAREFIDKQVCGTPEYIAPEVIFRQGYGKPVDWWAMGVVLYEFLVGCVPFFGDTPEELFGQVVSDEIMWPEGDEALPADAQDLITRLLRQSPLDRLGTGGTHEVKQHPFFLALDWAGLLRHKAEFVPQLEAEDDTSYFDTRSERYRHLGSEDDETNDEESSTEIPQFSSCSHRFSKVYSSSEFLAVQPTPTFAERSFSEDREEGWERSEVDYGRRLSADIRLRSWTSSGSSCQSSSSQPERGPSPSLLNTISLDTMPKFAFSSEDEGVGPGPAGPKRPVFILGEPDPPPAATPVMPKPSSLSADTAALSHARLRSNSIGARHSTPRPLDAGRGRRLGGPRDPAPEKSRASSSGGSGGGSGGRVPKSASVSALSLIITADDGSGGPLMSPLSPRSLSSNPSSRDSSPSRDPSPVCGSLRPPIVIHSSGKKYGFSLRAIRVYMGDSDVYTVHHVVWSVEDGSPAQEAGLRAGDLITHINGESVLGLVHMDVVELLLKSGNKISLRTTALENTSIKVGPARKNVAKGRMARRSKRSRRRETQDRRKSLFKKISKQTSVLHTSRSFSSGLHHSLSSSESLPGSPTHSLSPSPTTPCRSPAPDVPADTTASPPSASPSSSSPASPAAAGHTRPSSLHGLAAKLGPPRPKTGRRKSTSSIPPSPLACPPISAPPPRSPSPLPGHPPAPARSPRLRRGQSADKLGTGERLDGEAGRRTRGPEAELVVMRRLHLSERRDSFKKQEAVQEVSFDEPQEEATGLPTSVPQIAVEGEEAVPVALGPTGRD

[5] = molecular target: T5, selected panels of kinases in HeLa and PC3 cell lysates (Homo sapiens, UniProt Q96GX5); details: 10 uM; proteome HEL; peptide LYAVkVVK; labeling site Lys1
T5 construct: endogenous in cells; host or cells: HeLa and PC3 cell lysates

[6] = molecular target: T6, selected panels of kinases in HeLa and PC3 cell lysates (Homo sapiens, UniProt O15111); details: 10 uM; proteome HEL; peptide DLk[…]; labeling site Lys2
T6 construct: endogenous in cells; host or cells: HeLa and PC3 cell lysates

[7] = molecular target: T7, selected panels of kinases in HeLa and PC3 cell lysates (Homo sapiens, UniProt P49841); details: 10 uM; proteome PC3; peptide DIk[…]; labeling site Lys2
T7 construct: endogenous in cells; host or cells: HeLa and PC3 cell lysates

[8] = molecular target: T8, selected panels of kinases in HeLa and PC3 cell lysates (Homo sapiens, UniProt Q58A45); details: 10 uM; PAN3; peptide VMDPTkILITGK; proteome HEL
T8 construct: endogenous in cells; host or cells: HeLa and PC3 cell lysates

[9] = molecular target: T9, selected panels of kinases in HeLa and PC3 cell lysates (Homo sapiens, UniProt Q12851); details: 10 uM; proteome HEL; peptide […]kIVK; labeling site Lys1
T9 construct: endogenous in cells; host or cells: HeLa and PC3 cell lysates

[10] = molecular target: T10, selected panels of kinases in HeLa and PC3 cell lysates (Homo sapiens, UniProt Q15375); details: 10 uM; proteome PC3; peptide […]kIPVR; labeling site Activation Loop
T10 construct: endogenous in cells; host or cells: HeLa and PC3 cell lysates

[11] = molecular target: T11, selected panels of kinases in HeLa and PC3 cell lysates (Homo sapiens, UniProt P07332); details: 10 uM; proteome HEL; peptide […]kSCR; labeling site Lys1
T11 construct: endogenous in cells; host or cells: HeLa and PC3 cell lysates

[12] = molecular target: T12, selected panels of kinases in HeLa and PC3 cell lysates (Homo sapiens, UniProt Q16584); details: 10 uM, peptide DLk[…], labeling site Lys2
T12 construct: endogenous in cells; host or cells: HeLa and PC3 cell lysates
T12 sequence (Q16584 whole entry): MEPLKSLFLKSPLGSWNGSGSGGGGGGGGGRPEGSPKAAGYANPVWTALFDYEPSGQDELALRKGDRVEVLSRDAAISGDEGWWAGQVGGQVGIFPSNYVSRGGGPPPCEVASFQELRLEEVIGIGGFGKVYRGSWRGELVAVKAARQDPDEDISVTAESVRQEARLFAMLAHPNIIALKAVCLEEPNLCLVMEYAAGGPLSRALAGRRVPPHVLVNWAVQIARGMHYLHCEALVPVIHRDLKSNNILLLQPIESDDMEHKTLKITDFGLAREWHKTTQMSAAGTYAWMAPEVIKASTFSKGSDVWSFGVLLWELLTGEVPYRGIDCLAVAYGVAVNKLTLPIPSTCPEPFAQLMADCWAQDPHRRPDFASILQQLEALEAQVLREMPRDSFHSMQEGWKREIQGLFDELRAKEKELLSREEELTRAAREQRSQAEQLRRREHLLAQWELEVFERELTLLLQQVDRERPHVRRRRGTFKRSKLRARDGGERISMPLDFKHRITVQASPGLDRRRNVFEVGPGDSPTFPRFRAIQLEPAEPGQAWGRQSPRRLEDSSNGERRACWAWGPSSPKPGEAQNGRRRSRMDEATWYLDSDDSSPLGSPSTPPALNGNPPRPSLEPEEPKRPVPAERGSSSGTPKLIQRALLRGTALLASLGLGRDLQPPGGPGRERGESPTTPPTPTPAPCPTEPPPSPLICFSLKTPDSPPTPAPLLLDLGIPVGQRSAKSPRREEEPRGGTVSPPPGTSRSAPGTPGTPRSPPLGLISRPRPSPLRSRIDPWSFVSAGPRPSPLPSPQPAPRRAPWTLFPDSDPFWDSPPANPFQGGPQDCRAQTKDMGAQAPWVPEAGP

[13] = molecular target: T13, selected panels of kinases in HeLa and PC3 cell lysates (Homo sapiens, UniProt Q13233); details: 10 uM; proteome HEL; peptide DVk[…]; labeling site Lys2
T13 construct: endogenous in cells; host or cells: HeLa and PC3 cell lysates

[14] = molecular target: T14, selected panels of kinases in HeLa and PC3 cell lysates (Homo sapiens, UniProt Q00535); details: 10 uM, proteome PC3
T14 construct: endogenous in cells; host or cells: HeLa and PC3 cell lysates
T14 sequence (Q00535 whole entry): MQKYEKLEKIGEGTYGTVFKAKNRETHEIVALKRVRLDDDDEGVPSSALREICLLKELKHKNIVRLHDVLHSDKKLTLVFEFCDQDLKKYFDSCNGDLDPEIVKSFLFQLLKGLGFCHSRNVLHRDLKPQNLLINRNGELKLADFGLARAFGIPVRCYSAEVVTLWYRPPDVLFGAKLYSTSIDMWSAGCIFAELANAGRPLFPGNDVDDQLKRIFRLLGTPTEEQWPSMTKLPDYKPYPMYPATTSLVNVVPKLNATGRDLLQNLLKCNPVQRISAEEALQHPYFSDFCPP

[15] = molecular target: T15, selected panels of kinases in HeLa and PC3 cell lysates (Homo sapiens, UniProt Q13418); details: 10 uM
T15 construct: endogenous in cells; host or cells: HeLa and PC3 cell lysates
T15 sequence (Q13418 1-452): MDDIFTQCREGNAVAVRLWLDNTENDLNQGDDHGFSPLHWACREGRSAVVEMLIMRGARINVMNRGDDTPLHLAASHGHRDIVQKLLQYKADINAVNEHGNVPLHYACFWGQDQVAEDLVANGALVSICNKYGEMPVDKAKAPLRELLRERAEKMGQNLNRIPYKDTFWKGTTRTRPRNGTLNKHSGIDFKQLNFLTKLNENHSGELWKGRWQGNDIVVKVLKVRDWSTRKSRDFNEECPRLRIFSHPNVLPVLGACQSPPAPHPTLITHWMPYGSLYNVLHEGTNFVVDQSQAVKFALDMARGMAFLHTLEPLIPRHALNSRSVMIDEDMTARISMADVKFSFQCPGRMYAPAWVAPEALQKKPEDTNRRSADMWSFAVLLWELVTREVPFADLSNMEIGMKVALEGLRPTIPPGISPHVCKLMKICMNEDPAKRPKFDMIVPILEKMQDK

[16] = molecular target: T16, selected panels of kinases in HeLa and PC3 cell lysates (Homo sapiens, UniProt P10398); details: 10 uM; proteome HEL; peptide DLk[…]; labeling site Lys2
T16 construct: endogenous in cells; host or cells: HeLa and PC3 cell lysates

[17] = molecular target: T17, selected panels of kinases in HeLa and PC3 cell lysates (Homo sapiens, UniProt P48729); details: 10 uM; proteome PC3; peptide DIk[…]; labeling site Lys2
T17 construct: endogenous in cells; host or cells: HeLa and PC3 cell lysates

[18] = molecular target: T18, selected panels of kinases in HeLa and PC3 cell lysates (Homo sapiens, UniProt Q9H2G2); details: 10 uM, SLK
T18 construct: endogenous in cells; host or cells: HeLa and PC3 cell lysates

[19] = molecular target: T19, selected panels of kinases in HeLa and PC3 cell lysates (Homo sapiens, UniProt P08581); details: 10 uM, proteome PC3, labeling site Activation Loop
T19 construct: endogenous in cells; host or cells: HeLa and PC3 cell lysates
T19 sequence (P08581 25-1390): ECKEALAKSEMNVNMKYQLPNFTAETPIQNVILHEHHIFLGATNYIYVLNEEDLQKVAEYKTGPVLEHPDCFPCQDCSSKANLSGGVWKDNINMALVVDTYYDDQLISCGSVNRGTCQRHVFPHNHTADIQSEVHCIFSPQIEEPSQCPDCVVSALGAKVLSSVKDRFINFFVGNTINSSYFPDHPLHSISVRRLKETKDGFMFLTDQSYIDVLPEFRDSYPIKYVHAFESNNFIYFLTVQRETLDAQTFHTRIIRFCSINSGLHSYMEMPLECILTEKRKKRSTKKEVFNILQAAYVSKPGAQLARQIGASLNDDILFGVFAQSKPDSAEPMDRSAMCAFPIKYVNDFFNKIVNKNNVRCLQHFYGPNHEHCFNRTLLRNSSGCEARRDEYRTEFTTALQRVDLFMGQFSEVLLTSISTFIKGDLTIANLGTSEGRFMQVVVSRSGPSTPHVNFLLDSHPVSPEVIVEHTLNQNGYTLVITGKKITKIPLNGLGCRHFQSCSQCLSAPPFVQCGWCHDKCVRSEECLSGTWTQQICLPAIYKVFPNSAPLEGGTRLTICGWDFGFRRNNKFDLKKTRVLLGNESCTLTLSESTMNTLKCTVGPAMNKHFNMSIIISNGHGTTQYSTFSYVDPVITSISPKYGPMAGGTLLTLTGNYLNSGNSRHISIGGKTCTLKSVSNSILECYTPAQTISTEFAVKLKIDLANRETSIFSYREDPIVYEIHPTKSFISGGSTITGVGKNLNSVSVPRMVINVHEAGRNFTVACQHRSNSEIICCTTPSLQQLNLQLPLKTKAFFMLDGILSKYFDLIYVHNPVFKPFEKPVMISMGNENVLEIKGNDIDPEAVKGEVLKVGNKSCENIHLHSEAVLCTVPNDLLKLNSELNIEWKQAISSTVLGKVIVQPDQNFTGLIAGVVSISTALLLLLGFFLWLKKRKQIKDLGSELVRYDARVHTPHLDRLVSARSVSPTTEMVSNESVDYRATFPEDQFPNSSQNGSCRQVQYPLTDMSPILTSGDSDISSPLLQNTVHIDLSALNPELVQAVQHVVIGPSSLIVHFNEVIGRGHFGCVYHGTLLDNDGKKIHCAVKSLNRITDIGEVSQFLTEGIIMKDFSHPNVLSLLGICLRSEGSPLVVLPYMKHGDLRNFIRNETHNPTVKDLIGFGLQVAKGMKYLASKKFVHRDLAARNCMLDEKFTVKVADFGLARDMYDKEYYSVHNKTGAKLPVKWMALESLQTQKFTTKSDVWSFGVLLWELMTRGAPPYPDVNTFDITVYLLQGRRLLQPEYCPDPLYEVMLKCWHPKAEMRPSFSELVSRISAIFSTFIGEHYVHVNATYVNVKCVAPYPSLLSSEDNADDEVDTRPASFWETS

[20] = proteome HEL, peptide DLk[…], labeling site Lys2
[21] = proteome HEL, peptide […]kVIETK, labeling site Lys1
[22] = proteome PC3, peptide DLk[…], labeling site Lys2
[23] = proteome PC3, peptide […]kVIETK, labeling site Lys1
[24] = peptide DLkPQNLLINR, labeling site Lys2
[25] = peptide ETHEIVALkR, labeling site Lys1
[26] = peptide […]kR, labeling site Lys1
[27] = proteome HEL, peptide WQGNDIVVkVLK, labeling site Lys1
[28] = proteome PC3, peptide ISMADVkFSFQCPGR, labeling site Protein Kinase Domain
[29] = proteome PC3, peptide WQGNDIVVkVLK, labeling site Lys1
[30] = peptide DLk[…], proteome HEL, labeling site Lys2
[31] = peptide DLk[…], proteome PC3, labeling site Lys2
[32] = peptide ETSVLAAAkVIDTK, proteome PC3, labeling site Lys1

T1 sequence (O94804 whole entry): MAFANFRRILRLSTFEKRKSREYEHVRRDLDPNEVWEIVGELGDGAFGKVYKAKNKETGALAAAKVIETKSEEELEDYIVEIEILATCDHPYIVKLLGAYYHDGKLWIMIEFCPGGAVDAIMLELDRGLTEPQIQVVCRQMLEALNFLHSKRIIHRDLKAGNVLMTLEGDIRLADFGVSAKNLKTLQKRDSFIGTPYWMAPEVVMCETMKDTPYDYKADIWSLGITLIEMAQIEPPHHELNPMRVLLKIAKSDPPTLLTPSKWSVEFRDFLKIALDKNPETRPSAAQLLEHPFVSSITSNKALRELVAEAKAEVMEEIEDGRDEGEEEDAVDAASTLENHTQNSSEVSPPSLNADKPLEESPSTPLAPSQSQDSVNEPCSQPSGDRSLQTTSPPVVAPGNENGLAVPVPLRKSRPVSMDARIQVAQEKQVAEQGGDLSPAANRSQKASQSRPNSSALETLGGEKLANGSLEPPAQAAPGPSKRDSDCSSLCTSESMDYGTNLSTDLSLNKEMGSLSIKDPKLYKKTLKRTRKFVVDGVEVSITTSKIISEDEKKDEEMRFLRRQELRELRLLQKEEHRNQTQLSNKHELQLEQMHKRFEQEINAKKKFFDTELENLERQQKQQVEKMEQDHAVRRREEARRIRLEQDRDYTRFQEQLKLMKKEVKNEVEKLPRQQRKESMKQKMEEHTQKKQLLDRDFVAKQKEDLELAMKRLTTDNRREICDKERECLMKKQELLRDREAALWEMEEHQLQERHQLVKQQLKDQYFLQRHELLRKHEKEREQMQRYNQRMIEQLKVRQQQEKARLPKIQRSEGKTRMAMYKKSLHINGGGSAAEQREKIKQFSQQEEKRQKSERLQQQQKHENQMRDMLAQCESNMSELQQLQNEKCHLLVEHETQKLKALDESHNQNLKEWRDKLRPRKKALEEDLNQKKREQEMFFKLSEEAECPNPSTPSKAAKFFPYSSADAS

| SMILES | % Inhibiton, LOK [1, 20] [%] | % Inhibiton, LOK [1, 21] [%] | % Inhibiton, LOK [1, 22] [%] | % Inhibiton, LOK [1, 23] [%] | % Inhibiton, EphB2 [2] [%] | % Inhibition TAO2 [3] [%] | % Inhibiton, MAST3 ([4]; proteome HEL) [%] | % Inhibiton, MAST3 ([4]; proteome PC3) [%] | % Inhibiton, MASTL [5] [%] | % Inhibiton, IKKa [6] [%] | % Inhibiton, GSK3B [7] [%] | % Inhibition PAN3 [8] [%] | % Inhibiton, GCK [9] [%] | % Inhibiton, EphA7 [10] [%] | % Inhibiton, FES [11] [%] | % Inhibiton, MLK3 ([12]; proteome HEL) [%] | % Inhibiton, MLK3 ([12]; proteome PC3) [%] | % Inhibiton, MAP3K1 [13] [%] | % Inhibiton, CDK5 [14, 24] [%] | % Inhibiton, CDK5 [14, 25] [%] | other results |
| --- | --- | --- | --- | --- | --- | --- | --- | --- | --- | --- | --- | --- | --- | --- | --- | --- | --- | --- | --- | --- | --- |
| CCOc1cc(C(=O)N2CCC(N3CCN(C)CC3)CC2)ccc1Nc1ncc2c(n1)N(C1CCCC1)c1ccccc1C(=O)N2C [Compound 26] | -13 | 24.4 | 11.4 | 10 | -3.1 | 7.2 | -5.1 | -3.9 | 5.9 | -5.9 | -3 | -17.8 | 6.8 | 8.5 | 4.1 | -12.1 | 11.9 | 2.2 | -4.7 | -6.5 | % Inhibiton, CDK5 [14, 26]: 11.7%; % Inhibiton, ILK [15, 27]: 19.8%; % Inhibiton, ILK [15, 28]: 2%; % Inhibiton, ILK [15, 29]: -69.5%; % Inhibiton, ARAF [16]: 2.9%; % Inhibiton, CK1a [17]: -0.3%; % Inhibition SLK [18, 30]: 25.7%; % Inhibition SLK [18, 31]: 2.9%; % Inhibition SLK [18, 32]: -35.8%; % Inhibiton, MET ([19]; peptide DMYDkEYYSVHNK): -12.7%; % Inhibiton, MET ([19]; peptide […]kTGAK): 9.2% |
| COc1cc(C(=O)N2CCC(N3CCN(C)CC3)CC2)ccc1Nc1ncc2c(n1)N(C1CCCC1)c1ccccc1C(=O)N2C [Compound 25, 11-cyclopentyl-2-((2-methoxy-4-(4-(4-methylpiperazin-1-yl)piperidine-1-carbonyl)phenyl)amino)-5-methyl-5H-benzo[e]pyrimido[5,4-b][1,4]diazepin-6(11H)-one] | 3.2 | 2.1 | 8.0 | 1.9 | -3.8 | 0.261 | 0.5 | -6.8 | 14.5 | 5.3 | 4.6 | -1.7 | -2.3 | -3.8 | 6.0 | 3.1 | 4.4 | 36.1 | -8.6 | 9.7 | % Inhibiton, CDK5 [14, 26]: -1.2%; % Inhibiton, ILK [15, 27]: -3.0%; % Inhibiton, ILK [15, 28]: 8.4%; % Inhibiton, ILK [15, 29]: -5.9%; % Inhibiton, ARAF [16]: -0.657%; % Inhibiton, CK1a [17]: 9.4%; % Inhibition SLK [18, 30]: 10.4%; % Inhibition SLK [18, 31]: -11.4%; % Inhibition SLK [18, 32]: -17.6%; % Inhibiton, MET ([19]; peptide DMYDkEYYSVHNK): -15.9%; % Inhibiton, MET ([19]; peptide […]kTGAK): 4.8% |
